Measured values taken from US11352352B2, “Aminopyrimidine compound, preparation method therefor and use thereof” (BEIJING ADAMADLE BIOTECHNOLOGY LIMITED LIABILITY COMPANY, priority 2017, dated 2022).
pIC50: −log10 of the molar value.

Columns and labels:
Experiment in all cases: Cell proliferation inhibition experiment, CellTiter-Glo (CTG) method
Assay type in all cases: cell-based
NCI-H1975 = settings: for pIC50: NCI-H1975 cells, CTG, 3 days; for A-431/NCI-H1975 Selectivity: ratio of A-431 IC50 to NCI-H1975 IC50
In short: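 NCI-H1975 cells with viability above 90% by trypan blue were seeded at 90 μL per well in black 96-well plates and incubated overnight at 37° C., 5% CO2. Compounds were added at nine concentrations in triplicate, and viability was measured with CellTiter-Glo luminescence on EnVision. IC50 came from non-linear S-curve fitting in GraphPad Prism 5.0.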

PC-9 = PC-9 cells, 3 days
In short: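 Cells in log-phase growth (viability above 90% by trypan blue) were seeded at 90 μL per well in black-walled, clear-bottom 96-well plates and incubated overnight at 37° C., 5% CO2. A T0 plate was read the next day. Test compounds were added at nine concentrations in triplicate with a solvent control. Viability was measured by CellTiter-Glo luminescence on EnVision, and IC50 came from non-linear S-curve fitting in GraphPad Prism 5.0.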

A-431 = A-431 cells, 3 days
In short: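 Cells seeded overnight at 37 °C, 5% CO2, then treated with nine 3-fold dilutions in triplicate, top 30 μM for A-431 and 1.111 μM for NCI-H1975 and PC-9; solvent control. After 3 days, viability read by CellTiter-Glo luminescence; IC50 from non-linear sigmoidal fit of survival rate.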

Structure (SMILES) | pIC50 (NCI-H1975; Homo sapiens, NCI-H1975, 72 h) | pIC50 (PC-9; Homo sapiens, PC-9, 72 h) | pIC50 (A-431; Homo sapiens, A-431, 72 h) | pIC50 (NCI-H1975) | pIC50 (PC-9) | pIC50 (A-431) | A-431/NCI-H1975 Selectivity (NCI-H1975)
C=CC(=O)Nc1cc(Nc2cc(-c3ccc4cnn(C)c4c3)ncn2)c(OC)cc1OCCN(C)C(C)C [compound 188] | 6.94 | 7.25 | 5.55 | – | – | – | 24.5
C=CC(=O)Nc1cc(Nc2cc(-c3ccc4c(cnn4C)c3)ncn2)c(OC)cc1OCCN1CCCCC1 [compound 189] | 6.96 | 7.62 | 5.58 | – | – | – | 24.3
C=CC(=O)Nc1cc(Nc2cc(-c3ccc4nc(C)sc4c3)ncn2)c(OC)cc1N1CCN(CCN(C)C)CC1 [compound 190] | 6.97 | 7.61 | 5.68 | – | – | – | 19.3
C=CC(=O)Nc1cc(Nc2cc(-c3ccc4nc(C)sc4c3)ncn2)c(OC)cc1N1CCC(N(CC)CC)CC1 [compound 191] | 7.04 | 7.25 | 5.75 | – | – | – | 19.2
C=CC(=O)Nc1cc(Nc2cc(-c3cc4cnn(C)c4cc3F)ncn2)c(OC)cc1N1C[C@@H](C)N(C)[C@@H](C)C1 [compound 192] | 7.33 | 7.48 | 5.73 | – | – | – | 39.2
C=CC(=O)Nc1cc(Nc2cc(-c3cc4cnn(C)c4cc3F)ncn2)c(OC)cc1N1CCC(N(CC)CC)CC1 [compound 193] | 7.28 | 7.51 | 5.83 | – | – | – | 28.0
C=CC(=O)Nc1cc(Nc2cc(-c3cc4cnn(C)c4cc3F)ncn2)c(OC)cc1OCCN(C)C [compound 194] | 7.12 | 7.34 | 5.79 | – | – | – | 21.8
C=CC(=O)Nc1c(N(C)CCN(C)C(C)C)cc(OC)c(Nc2cc(-c3ccc4cnn(C)c4c3)ncn2)c1F [compound 198] | 7.11 | 7.18 | 5.63 | – | – | – | 30.4
C=CC(=O)Nc1cc(Nc2cc(-c3ccc4c(cnn4C)c3)ncn2)c(OC)cc1N1CCC(N2CCOCC2)CC1 [compound 208] | – | – | – | 7.70 | 7.97 | 5.96 | 54.8
C=CC(=O)Nc1cc(Nc2cc(-c3ccc4c(cnn4C)c3)ncn2)c(OC)cc1N1CCC(N2CCCC2=O)CC1 [compound 212] | 7.14 | 7.26 | 5.69 | – | – | – | 28.3
C=CC(=O)Nc1cc(Nc2cc(-c3ccc4cnn(C)c4c3)ncn2)c(OC)cc1N1CCC(N2CCCC2=O)CC1 [compound 213] | 7.13 | 7.25 | 5.69 | – | – | – | 27.4
C=CC(=O)Nc1cc(Nc2cc(-c3ccc4cnn(C)c4c3)ncn2)c(OC)cc1N1CCN(C2COC2)CC1 [compound 219] | 7.31 | 7.34 | 5.60 | – | – | – | 50.8
C=CC(=O)Nc1cc(Nc2cc(-c3ccc4c(cnn4C)c3)ncn2)c(OC)cc1N(C)C1CCN(C2CCOCC2)CC1 [compound 220] | 7.22 | 7.26 | 5.61 | – | – | – | 40.1
C=CC(=O)Nc1cc(Nc2cc(-c3ccc4cnn(C)c4c3)ncn2)c(OC)cc1N(C)C1CCN(C2CCOCC2)CC1 [compound 221] | 7.15 | 7.02 | 5.61 | – | – | – | 34.7
C=CC(=O)Nc1cc(Nc2cc(-c3ccc4cnn(C)c4c3)ncn2)c(OC)cc1N(C)C1CCN(CCOC)CC1 [compound 225] | 7.12 | 7.17 | 5.61 | – | – | – | 32.9
C=CC(=O)Nc1cc(Nc2cc(-c3ccc4c(cnn4C)c3)ncn2)c(OC)cc1N(C)C1CCN(CC)CC1 [compound 226] | 7.17 | 7.26 | 5.62 | – | – | – | 35.0
C=CC(=O)Nc1cc(Nc2cc(-c3ccc4cnn(C)c4c3)ncn2)c(OC)cc1N(C)C1CCN(CC)CC1 [compound 227] | 7.10 | 7.04 | 5.61 | – | – | – | 30.6
C=CC(=O)Nc1cc(Nc2nccc(-c3ccc4c(cnn4C)c3)n2)c(OC)cc1N1CCN(C)CC1 [compound 228] | 7.18 | 7.45 | 5.80 | – | – | – | 24.1
C=CC(=O)Nc1cc(Nc2nccc(-c3ccc4c(cnn4C)c3)n2)c(OC)cc1N1C[C@@H](C)N(C)[C@@H](C)C1 [compound 229] | 7.03 | 7.17 | 5.79 | – | – | – | 17.3

The next lines start with results.

pIC50 (NCI-H1975; Homo sapiens, NCI-H1975, 72 h) | pIC50 (PC-9; Homo sapiens, PC-9, 72 h) | pIC50 (A-431; Homo sapiens, A-431, 72 h) | pIC50 (NCI-H1975) | pIC50 (PC-9) | pIC50 (A-431) | Structure (SMILES) | A-431/NCI-H1975 Selectivity (NCI-H1975)
7.69 | 7.71 | 5.84 | – | – | – | C=CC(=O)Nc1cc(Nc2cc(-c3cc4cnn(C)c4cc3F)ncn2)c(OC)cc1N(C)C1CCN(C)C1 (stereo not drawn) [compound 195] | 70.5
7.44 | 7.68 | 5.70 | – | – | – | C=CC(=O)Nc1cc(Nc2cc(-c3ccc4cnn(C)c4c3)ncn2)c(OC)cc1N(C)CCN(C)C(C)C [compound 196] | 55.4
7.68 | 7.87 | 5.87 | – | – | – | C=CC(=O)Nc1c(N(C)CCN(C)C(C)C)cc(OC)c(Nc2cc(-c3ccc4c(cnn4C)c3)ncn2)c1F [compound 197] | 65.1
7.42 | 7.61 | 5.70 | – | – | – | C=CC(=O)Nc1cc(Nc2cc(-c3ccc4cnn(C)c4c3)ncn2)c(OC(F)F)cc1N(C)CCN(C)C(C)C [compound 199] | 52.3
7.85 | 7.57 | 6.01 | – | – | – | C=CC(=O)Nc1c(N(C)CCN(C)CC)cc(OC)c(Nc2cc(-c3ccc4c(cnn4C)c3)ncn2)c1F [compound 200] | –
7.61 | 7.68 | 5.87 | – | – | – | C=CC(=O)Nc1c(N(C)CCN(C)CC)cc(OC)c(Nc2cc(-c3ccc4cnn(C)c4c3)ncn2)c1F [compound 201] | 54.9
7.97 | 7.90 | 6.10 | – | – | – | C=CC(=O)Nc1cc(Nc2cc(-c3ccc4c(cnn4C)c3)ncn2)c(OC)cc1N1CCC(N2CCC(OC)C2)CC1 (stereo not drawn) [compound 202] | 74.6
7.80 | 7.80 | 6.05 | – | – | – | C=CC(=O)Nc1cc(Nc2cc(-c3ccc4c(cnn4C)c3)ncn2)c(OC)cc1N1CCC(N2CCC(OC)CC2)CC1 [compound 204] | 56.7
7.89 | 8.12 | 6.05 | – | – | – | C=CC(=O)Nc1cc(Nc2cc(-c3ccc4cnn(C)c4c3)ncn2)c(OC)cc1N1CCC(N2CCC(OC)CC2)CC1 [compound 205] | –
7.99 | 8.25 | 6.05 | – | – | – | C=CC(=O)Nc1cc(Nc2cc(-c3ccc4cnn(C)c4c3)ncn2)c(OC)cc1N1CCC(N2CC(OC)C2)CC1 [compound 207] | 87.7
7.61 | 7.92 | 5.79 | – | – | – | C=CC(=O)Nc1cc(Nc2cc(-c3ccc4cnn(C)c4c3)ncn2)c(OC)cc1N1CCC(C2CCOCC2)CC1 [compound 209] | 65.7
7.95 | 8.13 | 5.98 | – | – | – | C=CC(=O)Nc1cc(Nc2cc(-c3ccc4cnn(C)c4c3)ncn2)c(OC)cc1N1CCC(N2CCN(C3COC3)CC2)CC1 [compound 211] | –
7.71 | 7.78 | 5.82 | – | – | – | C=CC(=O)Nc1cc(Nc2cc(-c3ccc4c(cnn4C)c3)ncn2)c(OC)cc1N1CCN(C2CCOC2)CC1 (stereo not drawn) [compound 214] | 77.6
7.74 | 7.81 | 5.84 | – | – | – | C=CC(=O)Nc1cc(Nc2cc(-c3ccc4cnn(C)c4c3)ncn2)c(OC)cc1N1CCN(C2CCOC2)CC1 (stereo not drawn) [compound 215] | 78.1
7.87 | 7.89 | 5.91 | – | – | – | C=CC(=O)Nc1cc(Nc2cc(-c3ccc4c(cnn4C)c3)ncn2)c(OC)cc1N1CCN(C2CCC(OC)C2)CC1 (stereo not drawn) [compound 216] | 90.0
7.77 | 7.87 | 5.85 | – | – | – | C=CC(=O)Nc1cc(Nc2cc(-c3ccc4cnn(C)c4c3)ncn2)c(OC)cc1N1CCN(C2CCC(OC)C2)CC1 (stereo not drawn) [compound 217] | 82.8
7.67 | 8.04 | 5.74 | – | – | – | C=CC(=O)Nc1cc(Nc2cc(-c3ccc4c(cnn4C)c3)ncn2)c(OC)cc1N1CCN(C2COC2)CC1 [compound 218] | 86.6
7.87 | 7.68 | 6.01 | – | – | – | C=CC(=O)Nc1cc(Nc2cc(-c3ccc4c(cnn4C)c3)ncn2)c(OC)cc1N(C)C1CCN(CCOC)C1 (stereo not drawn) [compound 222] | 72.3
7.39 | 7.39 | 5.63 | – | – | – | C=CC(=O)Nc1cc(Nc2cc(-c3ccc4cnn(C)c4c3)ncn2)c(OC)cc1N(C)C1CCN(CCOC)C1 (stereo not drawn) [compound 223] | 57.4
7.80 | 7.57 | 5.96 | – | – | – | C=CC(=O)Nc1cc(Nc2cc(-c3ccc4c(cnn4C)c3)ncn2)c(OC)cc1N(C)C1CCN(CCOC)CC1 [compound 224] | 69.3
